Laboratory results taken from PubChem BioAssay (NCI).
Values joined by “and” are separate entries in the source; they are usually repeats but may differ in a detail not shown here. Identical values can stand only once.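 Five compound concentrations were applied to cells in 96-well plates for 48 hours; endpoints were derived by simple linear interpolation of the resulting dose-response curve. GI50: concentration for 50% inhibition of growth. TGI: concentration producing complete growth inhibition.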 Numbered stars: 1 amine (or outer) side, 2 acyl side, 3 side chain; on linkers, the order of the positions; unused ones are H or OH. Bridge positions count the residues as written; N and C are the ends. Square brackets hold non-standard residues; d marks the D form. Peptide text beside a SMILES is read from it. I, II: the chains in the order shown. Actinocin(9to1) = Cc1c2oc3c(C)ccc(C(=O)[*:1])c3nc-2c(C(=O)[*:2])c(N)c1=O; aThr = C[C@H](O)[C@H](N)C(=O)O; NMeV = CN[C@H](C(=O)O)C(C)C; Sar = CNCC(=O)O

Legend:
Assay in all cases: NCI tumour cell line growth inhibition, 48 h
[1] = system: M19-MEL melanoma
[2] = system: XF 498 CNS
[3] = system: SNB-75 CNS
[4] = system: HS 578T breast
[5] = system: SN12K1 renal
[6] = system: DLD-1 colon
[7] = system: LXFL 529 NSCLC
[8] = system: SNB-78 CNS
[9] = system: KM20L2 colon
[10] = system: MCF7 breast
[11] = system: T-47D breast
[12] = system: HOP-18 NSCLC
[13] = system: P388/ADR leukemia
[14] = system: DMS 273 small cell lung
[15] = system: DMS 114 small cell lung
[16] = system: P388 leukemia
[17] = system: NCI/ADR-RES ovarian
[18] = system: SW-620 colon
[19] = system: SK-MEL-28 melanoma
[20] = system: SF-295 CNS
[21] = system: U251 CNS
[22] = system: SNB-19 CNS
[23] = system: MALME-3M melanoma
[24] = system: NCI-H460 lung
[25] = system: UO-31 renal
[26] = system: COLO 205 colon
[27] = system: SF-268 CNS
[28] = system: OVCAR-5 ovarian
[29] = system: SK-MEL-5 melanoma
[30] = system: HT29 colon
[31] = system: OVCAR-4 ovarian
[32] = system: SN12C renal
[33] = system: HCT-116 colon
[34] = system: IGROV1 ovarian
[35] = system: OVCAR-8 ovarian
[36] = system: UACC-257 melanoma
[37] = system: KM12 colon
[38] = system: OVCAR-3 ovarian
[39] = system: HCT-15 colon
[40] = system: NCI-H522 lung
[41] = system: A498 renal
[42] = system: LOX IMVI melanoma
[43] = system: NCI-H226 lung
[44] = system: CAKI-1 renal
[45] = system: HOP-92 NSCLC
[46] = system: SK-MEL-2 melanoma
[47] = system: UACC-62 melanoma
[48] = system: HL-60(TB) leukemia
[49] = system: EKVX NSCLC
[50] = system: RPMI-8226 leukemia
[51] = system: HCC-2998 colon
[52] = system: CCRF-CEM leukemia
[53] = system: RXF 393 renal
[54] = system: K-562 leukemia
[55] = system: MOLT-4 leukemia
[56] = system: NCI-H23 lung
[57] = system: SK-OV-3 ovarian
[58] = system: HOP-62 NSCLC
[59] = system: SF-539 CNS
[60] = system: A549 NSCLC

In the case of `Cc1c2oc3c(C)ccc(C(=O)N[C@@H]4C(=O)N[C@H](C(C)C)C(=O)N5CCC[C@H]5C(=O)N(C)CC(=O)N(C)[C@@H](C(C)C)C(=O)O[C@H]4C)c3nc-2c(C(=O)N[C@@H]2C(=O)N[C@H](C(C)C)C(=O)N3CCC[C@H]3C(=O)N(C)CC(=O)N(C)[C@@H](C(C)C)C(=O)O[C@H]2C)c(N)c1=O` (I: [aThr][dV]P[Sar][NMeV] / II: [aThr][dV]P[Sar][NMeV]; ester I:1-I:C, II:1-II:C; linker I:N-II:N via Actinocin(9to1)), the GI50 [1] is reported as 0.496 nM, the TGI [1] is reported as 19.4 nM and 12.7 nM and the GI50 [2] is reported as 0.444 nM. The TGI [2] was 12.8 nM and 3.03 nM, the TGI [3] was 24.6 nM [middle of 6 runs] and the TGI [4] was 47.7 nM [middle of 4 runs]. For the same compound, the TGI [5] was 148 nM, the GI50 [6] was 1.9 nM and the TGI [6] was 208 nM and 1200 nM. For the same compound, the GI50 [7] was 1.39 nM and 0.348 nM, the TGI [7] was 70 nM and 320 nM and the GI50 [8] was 4.47 nM. For the same compound, the TGI [8] was 117 nM and 315 nM, the GI50 [9] was 0.964 nM and the TGI [9] was 106 nM and 85.9 nM. For the same compound, the TGI [10] was 69.3 nM and 250 nM and 197 nM, the TGI [11] was 34.3 nM [middle of 4 runs] and the GI50 [12] was 9.03 nM. The TGI [12] was 123 nM and 125 nM, the TGI [13] was 171 nM and the GI50 [14] was 0.783 nM. For the same compound, the TGI [14] was 26 nM and 17.8 nM, the GI50 [15] was 1.01 nM and the TGI [15] was 18.7 nM and 12.2 nM. It also gave a TGI [16] of 15.4 nM.
`CC1OC(CO)(n2cnc3c(N)ncnc32)C(O)C1O` (configuration not stated) gave a TGI [1] greater than 100000 nM, a TGI [17] greater than 100000 nM and a TGI [2] greater than 100000 nM. It also gave a TGI [18] greater than 100000 nM, a TGI [19] greater than 100000 nM and a TGI [20] greater than 100000 nM. It also gave a TGI [21] greater than 100000 nM, a TGI [22] greater than 100000 nM and a TGI [3] greater than 100000 nM. The TGI [23] was greater than 100000 nM, the TGI [24] was greater than 100000 nM and the TGI [25] was greater than 100000 nM. It also gave a TGI [26] greater than 100000 nM, a TGI [27] greater than 100000 nM and a TGI [5] greater than 100000 nM. For the same compound, the TGI [28] was greater than 100000 nM, the TGI [6] was greater than 100000 nM and the TGI [29] was greater than 100000 nM. The TGI [8] was greater than 100000 nM, the TGI [30] was greater than 100000 nM and the TGI [31] was greater than 100000 nM. For the same compound, the TGI [32] was greater than 100000 nM, the TGI [9] was greater than 100000 nM and the TGI [33] was greater than 100000 nM. The TGI [34] was greater than 100000 nM, the TGI [35] was greater than 100000 nM and the TGI [36] was greater than 100000 nM. It also gave a TGI [37] greater than 100000 nM, a TGI [10] greater than 100000 nM and a TGI [38] greater than 100000 nM. The TGI [39] was greater than 100000 nM, the TGI [40] was greater than 100000 nM and the TGI [41] was greater than 100000 nM. It also gave a TGI [12] greater than 100000 nM, a TGI [42] greater than 100000 nM and a TGI [13] greater than 100000 nM. It also gave a TGI [43] greater than 100000 nM, a TGI [44] greater than 100000 nM and a TGI [45] greater than 100000 nM. The TGI [14] was greater than 100000 nM, the TGI [46] was greater than 100000 nM and the TGI [15] was greater than 100000 nM. The TGI [47] was greater than 100000 nM, the TGI [48] was greater than 100000 nM and the TGI [16] was greater than 100000 nM. For the same compound, the TGI [49] was greater than 100000 nM, the TGI [50] was greater than 100000 nM and the TGI [51] was greater than 100000 nM. The TGI [52] was greater than 100000 nM, the TGI [53] was greater than 100000 nM and the TGI [54] was greater than 100000 nM. The TGI [55] was greater than 100000 nM, the TGI [56] was greater than 100000 nM and the TGI [57] was greater than 100000 nM. For the same compound, the TGI [58] was greater than 100000 nM, the TGI [59] was greater than 100000 nM and the TGI [60] was greater than 100000 nM.
